US9029546B2, “Pyrazolopyridine kinase inhibitors” (Vertex Pharmaceuticals Incorporated, priority 2008, dated 2015)

Columns and labels:
PKC theta kinase = PKC theta kinase (Homo sapiens, UniProt Q04759); assay: PKC theta coupled-enzyme kinase assay (NADH consumption); assay type: biochemical; settings: 240 μM ATP, 30° C.
Method: (§1) An assay buffer solution was prepared which consisted of 100 mM HEPES (pH 7.5), 10 mM MgCl2, 25 mM NaCl, 0.1 mM EDTA and 0.01% Brij. An enzyme buffer containing reagents to final assay concentrations of 0.00001% Triton X-100, 200 μg/mL Phosphatidylserine, 20 μg/mL Diacylglycerol, 360 μM NADH, 3 mM phosphoenolpyruvate, 70 μg/mL pyruvate kinase, 24 μg/mL lactate dehydrogenase, 2 mM DTT, 100 μM substrate peptide (ERMRPRKRQGSVRRRV (SEQ ID NO: 1)) and 18 nM PKC theta kinase was prepared in assay buffer. To 60 μL of this enzyme buffer, in a 384 well plate, was added 2 μL of VRT stock solution in DMSO. The mixture was allowed to equilibrate for 10 mins at 30° C. The enzyme reaction was initiated by the addition of 5 μL stock ATP solution prepared in assay buffer to a final assay concentration of 240 μM. Initial rate data was determined from the rate of change of absorbance at 340 nm (corresponding to stoichiometric consumption of NADH) using a Molecular Devices Spectramax plate reader (Sunnyvale, Calif.) over 15 mins at 30° C. For each Ki determination 12 data points covering the VRT concentration range of 0-20 μM were obtained in duplicate (DMSO stocks were prepared from an initial 10 mM VRT stock with subsequent 1:2 serial dilutions). Ki values were calculated from initial rate data by non-linear regression using the Prism software package (Prism 4.0a, Graphpad Software, San Diego, Calif.).

PKC Delta = PKC Delta (Homo sapiens, UniProt Q05655); assay: PKC delta coupled-enzyme kinase assay (NADH consumption); assay type: biochemical; settings: 240 μM ATP, 30° C.
Method: [The source words this procedure for another target and reports this target under the same test.] as §1

PKC theta kinase, sequence (Q04759 whole entry): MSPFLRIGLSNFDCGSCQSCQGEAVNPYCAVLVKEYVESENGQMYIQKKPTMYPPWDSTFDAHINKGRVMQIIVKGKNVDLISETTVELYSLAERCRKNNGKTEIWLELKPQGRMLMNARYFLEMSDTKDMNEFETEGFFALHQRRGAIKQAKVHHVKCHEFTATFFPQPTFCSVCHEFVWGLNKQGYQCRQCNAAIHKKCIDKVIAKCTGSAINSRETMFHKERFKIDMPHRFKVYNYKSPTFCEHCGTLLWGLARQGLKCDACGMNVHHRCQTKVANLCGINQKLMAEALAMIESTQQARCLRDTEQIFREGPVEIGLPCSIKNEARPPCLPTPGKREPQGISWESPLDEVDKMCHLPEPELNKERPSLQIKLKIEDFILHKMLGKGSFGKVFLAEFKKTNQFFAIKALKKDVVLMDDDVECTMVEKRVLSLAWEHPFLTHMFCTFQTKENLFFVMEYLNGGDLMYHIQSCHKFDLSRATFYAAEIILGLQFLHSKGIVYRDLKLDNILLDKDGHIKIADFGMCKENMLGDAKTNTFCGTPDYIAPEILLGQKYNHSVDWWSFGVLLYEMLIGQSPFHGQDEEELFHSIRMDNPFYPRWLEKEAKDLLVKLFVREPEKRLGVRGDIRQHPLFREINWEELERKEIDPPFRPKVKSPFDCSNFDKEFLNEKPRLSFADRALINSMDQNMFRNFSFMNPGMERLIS
PKC Delta, sequence (Q05655 whole entry): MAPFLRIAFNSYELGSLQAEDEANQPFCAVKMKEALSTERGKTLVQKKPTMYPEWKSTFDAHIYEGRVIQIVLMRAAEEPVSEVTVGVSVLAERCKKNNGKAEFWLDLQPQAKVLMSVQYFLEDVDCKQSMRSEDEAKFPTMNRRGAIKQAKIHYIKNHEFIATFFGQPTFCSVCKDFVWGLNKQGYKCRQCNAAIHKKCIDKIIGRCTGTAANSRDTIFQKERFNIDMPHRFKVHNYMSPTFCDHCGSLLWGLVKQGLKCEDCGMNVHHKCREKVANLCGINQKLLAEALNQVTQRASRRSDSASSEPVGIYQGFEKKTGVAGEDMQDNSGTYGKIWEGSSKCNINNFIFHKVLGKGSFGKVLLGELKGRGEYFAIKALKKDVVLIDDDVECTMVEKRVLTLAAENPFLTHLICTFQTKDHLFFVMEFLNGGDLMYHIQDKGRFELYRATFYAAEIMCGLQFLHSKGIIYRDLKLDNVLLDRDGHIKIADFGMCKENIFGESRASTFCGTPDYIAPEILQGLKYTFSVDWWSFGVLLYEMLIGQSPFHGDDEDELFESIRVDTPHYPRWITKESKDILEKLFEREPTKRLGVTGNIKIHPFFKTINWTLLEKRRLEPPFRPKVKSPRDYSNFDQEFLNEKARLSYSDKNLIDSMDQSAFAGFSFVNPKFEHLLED

| Ki (PKC theta kinase) | Ki (PKC Delta) | Structure (SMILES) |
| --- | --- | --- |
| < 50 nM | < 50 nM | CC(C)(N)CNc1cccc(-c2n[nH]c3ncccc23)n1 [Compound 1, N1-(6-(1H-pyrazolo[3,4-b]pyridin-3-yl)pyridin-2-yl)-2-methylpropane-1,2-diamine] |
| < 500 nM | < 500 nM | NCCCNc1cccc(-c2n[nH]c3ncccc23)n1 [Compound 2] |
| < 500 nM | < 500 nM | NC1CCCCC1Nc1cccc(-c2n[nH]c3ncccc23)n1 (stereo not drawn) [Compound 3] |
| < 500 nM | < 500 nM | NCC1CCC(CNc2cccc(-c3n[nH]c4ncccc34)n2)CC1 (stereo not drawn) [Compound 4] |
| < 2800 nM | < 2800 nM | CNCCN(C)c1cccc(-c2n[nH]c3ncccc23)n1 [Compound 5] |
| < 500 nM | < 500 nM | c1cc(NC2CCNC2)nc(-c2n[nH]c3ncccc23)c1 (stereo not drawn) [Compound 6] |
| > 700 nM | > 700 nM | O[C@H](CNc1cccc(-c2n[nH]c3ncccc23)n1)c1ccccc1 [Compound 7] |
| > 700 nM | > 700 nM | OCCNc1cccc(-c2n[nH]c3ncccc23)n1 [Compound 8] |
| < 50 nM | < 50 nM | NCC(CNc1cccc(-c2n[nH]c3ncccc23)n1)c1ccccc1 (stereo not drawn) [Compound 9] |
| < 500 nM | < 500 nM | CC(C)(CN)CNc1cccc(-c2n[nH]c3ncccc23)n1 [Compound 10] |
| < 500 nM | < 500 nM | N[C@H](CNc1cccc(-c2n[nH]c3ncccc23)n1)c1ccccc1 [Compound 11] |
| < 500 nM | < 500 nM | c1cc(NCC2CCCNC2)nc(-c2n[nH]c3ncccc23)c1 (stereo not drawn) [Compound 12] |
| < 500 nM | < 500 nM | NC1CCC(CNc2cccc(-c3n[nH]c4ncccc34)n2)CC1 (stereo not drawn) [Compound 13, N-((4-aminocyclohexyl)methyl)-6-(1H-pyrazolo[3,4-b]pyridin-3-yl)pyridin-2-amine] |
| < 500 nM | < 500 nM | c1cc(NCC2CCNCC2)nc(-c2n[nH]c3ncccc23)c1 [Compound 14] |
| > 700 nM | > 700 nM | CC(C)CC(O)CNc1ccc(C(F)(F)F)c(-c2n[nH]c3ncccc23)n1 (stereo not drawn) [Compound 15] |
| < 500 nM | < 500 nM | CC(C)C[C@H](N)CNc1cccc(-c2n[nH]c3ncccc23)n1 [Compound 16] |
| > 700 nM | > 700 nM | CC(C)C[C@@H](CN)Nc1cccc(-c2n[nH]c3ncccc23)n1 [Compound 17] |
| < 50 nM | < 50 nM | c1cc(NC2CCNCC2)nc(-c2n[nH]c3ncccc23)c1 [Compound 18] |
| < 500 nM | < 500 nM | O[C@H](CNc1ccc(C(F)(F)F)c(-c2n[nH]c3ncccc23)n1)c1ccccc1 [Compound 19] |
| > 700 nM | > 700 nM | c1cc(NCC2CCCN2)nc(-c2n[nH]c3ncccc23)c1 (stereo not drawn) [Compound 20] |
| > 700 nM | > 700 nM | CC(C)CC(O)CNc1cccc(-c2n[nH]c3ncccc23)n1 (stereo not drawn) [Compound 21] |
| < 500 nM | < 500 nM | c1cc(NCC2CCNC2)nc(-c2n[nH]c3ncccc23)c1 (stereo not drawn) [Compound 22] |
| < 2800 nM | < 2800 nM | c1cc(NCC2CCCCN2)nc(-c2n[nH]c3ncccc23)c1 (stereo not drawn) [Compound 23] |
| < 500 nM | < 500 nM | NCC1CCC(CNc2ccc(C(F)(F)F)c(-c3n[nH]c4ncccc34)n2)CC1 (stereo not drawn) [Compound 24] |
| < 500 nM | < 500 nM | NC1CCC(CNc2ccc(C(F)(F)F)c(-c3n[nH]c4ncccc34)n2)CC1 (stereo not drawn) [Compound 25, N-((4-aminocyclohexyl)methyl)-6-(1H-pyrazolo[3,4-b]pyridin-3-yl)-5-(trifluoromethyl)pyridin-2-amine] |
| > 700 nM | > 700 nM | FC(F)(F)c1ccc(NC2CCCNC2)nc1-c1n[nH]c2ncccc12 (stereo not drawn) [Compound 26] |

| Ki (PKC theta kinase) | Ki (PKC Delta) | Structure (SMILES) |
| --- | --- | --- |
| > 700 nM | > 700 nM | FC(F)(F)c1ccc(NCC2CCNCC2)nc1-c1n[nH]c2ncccc12 [Compound 27] |
| > 700 nM | > 700 nM | FC(F)(F)c1ccc(NCC2CCCN2)nc1-c1n[nH]c2ncccc12 (stereo not drawn) [Compound 28] |
| > 700 nM | > 700 nM | FC(F)(F)c1ccc(NCC2CCNC2)nc1-c1n[nH]c2ncccc12 (stereo not drawn) [Compound 29] |
| < 500 nM | < 500 nM | NC1CCCC(Nc2ccc(C(F)(F)F)c(-c3n[nH]c4ncccc34)n2)C1 (stereo not drawn) [Compound 30] |
| > 700 nM | > 700 nM | FC(F)(F)c1ccc(NCC2CCCNC2)nc1-c1n[nH]c2ncccc12 (stereo not drawn) [Compound 31] |
| > 700 nM | > 700 nM | FC(F)(F)c1ccc(NCC2CCCCN2)nc1-c1n[nH]c2ncccc12 (stereo not drawn) [Compound 32] |
| < 500 nM | < 500 nM | CC(C)(CN)CNc1ccc(C(F)(F)F)c(-c2n[nH]c3ncccc23)n1 [Compound 33] |
| > 700 nM | > 700 nM | NCC1CCCC(CNc2ccc(C(F)(F)F)c(-c3n[nH]c4ncccc34)n2)C1 (stereo not drawn) [Compound 34] |
| > 700 nM | > 700 nM | NC1CCC(Nc2ccc(C(F)(F)F)c(-c3n[nH]c4ncccc34)n2)CC1 (stereo not drawn) [Compound 35] |
| < 50 nM | < 50 nM | NC(CNc1ccc(C(F)(F)F)c(-c2n[nH]c3ncccc23)n1)c1ccccc1 (stereo not drawn) [Compound 36] |
| < 500 nM | < 500 nM | NC(COc1ccc(C(F)(F)F)c(-c2n[nH]c3ncccc23)n1)c1ccccc1 (stereo not drawn) [Compound 37] |
| < 500 nM | < 500 nM | CC(C)C[C@H](N)COc1ccc(C(F)(F)F)c(-c2n[nH]c3ncccc23)n1 [Compound 38] |
| > 700 nM | > 700 nM | CC(C)C[C@@H](N)COc1ccc(C(F)(F)F)c(-c2n[nH]c3ncccc23)n1 [Compound 39] |
| < 2800 nM | < 2800 nM | FC(F)(F)c1ccc(NC2CCNCC2)nc1-c1n[nH]c2ncccc12 [Compound 40] |
| > 700 nM | > 700 nM | NC(=O)c1ccccc1Oc1ccc(C(F)(F)F)c(-c2n[nH]c3ncccc23)n1 [Compound 41] |
| > 700 nM | > 700 nM | N#CCCNc1ccc(C(F)(F)F)c(-c2n[nH]c3ncccc23)n1 [Compound 42] |
| > 700 nM | > 700 nM | FC(F)(F)c1ccc(OCCC2CCCCN2)nc1-c1n[nH]c2ncccc12 (stereo not drawn) [Compound 43] |
| < 500 nM | < 500 nM | CN(CC#N)c1ccc(C(F)(F)F)c(-c2n[nH]c3ncccc23)n1 [Compound 44] |
| > 700 nM | > 700 nM | N#CCCOc1ccc(C(F)(F)F)c(-c2n[nH]c3ncccc23)n1 [Compound 45] |
| > 700 nM | > 700 nM | FC(F)(F)c1ccc(OCC2CCCNC2)nc1-c1n[nH]c2ncccc12 (stereo not drawn) [Compound 46] |
| < 500 nM | < 500 nM | OC1(CNc2ccc(C(F)(F)F)c(-c3n[nH]c4ncccc34)n2)CCCCC1 [Compound 47] |
| > 700 nM | > 700 nM | NCc1ccc(Nc2ccc(C(F)(F)F)c(-c3n[nH]c4ncccc34)n2)cc1 [Compound 48] |
| > 700 nM | > 700 nM | FC(F)(F)c1ccc(Nc2ccc3nc[nH]c3c2)nc1-c1n[nH]c2ncccc12 [Compound 49] |
| > 700 nM | > 700 nM | NC(=O)c1ccsc1Nc1ccc(C(F)(F)F)c(-c2n[nH]c3ncccc23)n1 [Compound 50] |
| > 700 nM | > 700 nM | FC(F)(F)c1ccc(OC[C@@H]2CCCN2)nc1-c1n[nH]c2ncccc12 [Compound 51] |
